The values that follow come from patent US10472352B2, “Rac inhibitors” (Geneyus LLC, priority 2017, dated 2019).

Molecules are shown by their SMILES.

In series [1] the test system is BT474 breast cancer cells. The experiment in a line: BT474 Four (4) Day Cell Viability Assay. The settings on record: BT474, 4 days, 32661 0 μM, fulvestrant 0.0 nM. It counts as cell-based. Here is the method:
BT474 breast cancer cells that are Estrogen Receptor Positive and HER2+ were grown in 5% cFBS. 5,000 cells were seeded into each well of a 96-well plate and treated with escalating doses of lapatinib, fulvestrant, and 32661.

Series [2] concerns the target T1, Rac1 protein (Homo sapiens, UniProt P63000).
T1 construct: purchased Cytoskeleton Inc. RC01
The experiment in a line: Fluorescence Polarization Assay (Rac1 FP). It counts as binding. To be noted: 125 nM his-tagged Rac1, 12.5 nM Bodipy-TR GTPγS, 30 minutes at 37° C. How it is done:
Direct binding of Rac1 compound inhibitors to Rac1 protein was performed using fluorescence polarization (FP). Briefly, Rac1 inhibitors were initially dissolved in DMSO and then serial drug dilutions in exchange buffer (20 mM Tris pH 7.5, 50 mM NaCl, 1 mM MgCl, 1 mM EDTA) were prepared in a flat black 96-well half-area plate (Greiner). Recombinant his-tagged Rac1 protein (Cytoskeleton Inc. Cat. # RC01) was added to the inhibitors at a final concentration of 125 nM along with 12.5 nM Bodipy-TR GTPγS (Life Technologies Inc. Cat. # G35780) in exchange buffer and incubated for 30 minutes at 37° C. in exchange buffer. After 30 minutes of incubation. FP was measured on the M1000 Pro (Tecan) fluorescent plate reader with 590 nm±5 nm excitation and 625 nm±5 nm emission spectra settings.
A general note: Fluorescence polarisation rises when a labelled molecule tumbles more slowly, as on binding a larger partner.

Series [3] deals with His-Rac1 / GST-PBD (PAK Binding Domain) (Homo sapiens, UniProt P63000). The experiment in a line: Rac Activation AlphaScreen Assay (Rac1 AS). It counts as biochemical. The settings on record: 500 nM GTPγS, 37° C., 1 hour; 'positive' = signal generated was higher than the positive control. How it is done: AlphaScreen® assays were performed in 96-well microplates in a final reaction volume of 60 μl. Recombinant His-Rac1, recombinant GST-PBD (PAK Binding Domain), donor and acceptor beads (PerkinElmer), and inhibitors were incubated in exchange buffer (20 mM Tris pH 7.5, 50 mM NaCl, 1 mM MgCl2, 1 mM EDTA, 500 nM GTPγS (guanosine 5′-[γ-thio]triphosphate)) at 37° C. Readings were performed on a Tecan M1000 pro microplate reader after 1 hour.

Series [4] deals with MCF-7 human breast cancer cell line. The experiment in a line: Cell Viability Assay (MCF7), PrestoBlue. It counts as cell-based. To be noted: MCF7, 72 h, MCF-7 cells, three days after drug treatment. Here is the method:
In order to determine a compound's effect on cell viability, PrestoBlue assays were performed as previously described by Kuhn et al. (2013) with modifications. MCF-7 human breast cancer and IGR-1 human melanoma cell lines were seeded into 96-well plates 24 hours prior to addition of drug. Cells were treated with 0 to 200 μM (11 concentrations) of compound solubilized in DMSO, adjusting the final concentration of DMSO to 1% in the well. Three days after drug treatment, cell viability was measured by adding PrestoBlue (Life Technologies Ltd.; cat. No. A13262) reagent directly to wells containing media/drug to reach a final concentration of 10%. PrestoBlue is a modified molecule of the common Alamar Blue probe used to determine viability based on the ability of a cell to metabolize a nonfluorescent compound (resazurin) to a florescent molecule (resorufin). Following a 1 hour incubation period, total well fluorescence was measured using the microplate reader M1000 pro (Tecan) with excitation 560-5 nm and emission 590-5 nm. […] The percentage of living cells was then computed by comparison with control wells. Kuhn, Jonas et al., Assay and Drug Development Technologies, March 2013, Label-Free Cytotoxicity Screening Assay by Digital Holographic Microscopy.

For `CS(=O)(=O)CCNCc1ccc(-c2ccc3ncnc(Nc4ccc(OCc5cccc(F)c5)c(Cl)c4)c3c2)o1` [Lapatinib, lapatinib, reference compound], the cellular viability worked out at 99% in series [1] (lapatinib 6.9 nM); 96% in series [1] (lapatinib 20.6 nM); 80% in series [1] (lapatinib 61.7 nM); 75% in series [1] (lapatinib 185.2 nM); 77% in series [1] (lapatinib 555.6 nM); 68% in series [1] (lapatinib 1666.7 nM). The cellular viability in series [1] (lapatinib 3333.0 nM) is recorded as 60%.

As usually defined, the IC50 is the point on the concentration scale where inhibition reaches its midpoint. A higher IC50 goes with weaker potency. Turning to `O=C(NCc1cn(CCCCCCSc2ccnc3cc(C(F)(F)F)ccc23)nn1)C1CCCCC1` [Compound 0032896, N-{[1-(6-{[7-(trifluoromethyl)quinolin-4-yl]sulfanyl}hexyl)-1H-1,2,3-triazol-4-yl]methyl} cyclohexane-carboxamide], the IC50 in series [2] came to 4.76 µM; in series [4], 13.8 µM. In addition, the “Rac1 AS IC50(uM)” value in series [3] was “positive”.

As to `NC1CCN(c2ccc(NCCCCCCSc3ccnc4cc(C(F)(F)F)ccc34)cc2)CC1` [Compound 0033278, 1-{4-[(6-{[7-(trifluoromethyl)quinolin-4-yl]sulfanyl}hexyl)amino]phenyl} piperidin-4-amine], the figures for the IC50 in series [2], in series [3] and in series [4] were 2.32 µM, 1.1 µM and 7.6 µM, respectively.

Regarding `FC(F)(F)c1ccc2c(SCCCCCNc3ccc(N4CCNCC4)cc3)ccnc2c1` [Compound 0033240, 4-(piperazin-1-yl)-N-(5-{[7-(trifluoromethyl)quinolin-4-yl]sulfanyl}pentyl)aniline], the concentration for half-maximal inhibition (IC50) in series [2] was determined as 9.67 µM; in series [3], 0.98 µM; in series [4], 3.8 µM.

For the compound `Fc1ccc2c(SCCCCCCn3cc(CN4CCOCC4)nn3)ccnc2c1` [Compound 0032833, 7-fluoro-4-{(6-[4-(morpholin-4-ylmethyl)-1H-1,2,3-triazol-1-yl]hexyl}sulfanyl) quinoline], the IC50 in series [2] was determined as 4.32 µM; in series [4], 7.8 µM. Besides, the “Rac1 AS IC50(uM)” value in series [3] is “positive”.

As to `FC(F)(F)c1ccc2c(SCCCCCCn3cncc3CN3CCOCC3)ccnc2c1` [Compound 0032662, 4-({6-[5-(morpholin-4-ylmethyl)-1H-imidazol-1-yl]hexyl}sulfanyl)-7-(trifluoromethyl) quinoline], the IC50 was 2.33 µM in series [2], 16.6 µM in series [3] and 19.1 µM in series [4].

On to `O=C1CNCCN1c1ccc(NCCCCCCSc2ccnc3cc(C(F)(F)F)ccc23)cc1` [Compound 0033283, 1-{4-[(6-{[7-(trifluoromethyl)quinolin-4-yl]sulfanyl)hexyl}amino]phenyl} piperazin-2-one], for which the IC50 came to 3.07 µM in series [2], 6.3 µM in series [3] and 5.6 µM in series [4].

With `FC(F)(F)c1ccc2c(SCCCCCCNc3ccc(N4CCNCC4)cc3)ccnc2c1` [Compound 0033102, 4-(piperazin-1-yl)-N-(6-{[7-(trifluoromethyl)quinolin-4-yl]sulfanyl}hexyl)aniline], the IC50 was found to be 9.66 µM in series [2], 0.383 µM in series [3] and 3.8 µM in series [4].

In the case of `COc1ccc(NCc2cn(CCCCCCSc3ccnc4cc(C(F)(F)F)ccc34)cn2)cc1` [Compound 0032881, 4-methoxy-N-{[1-(6-{[7-(trifluoromethyl)quinolin-4-yl]sulfanyl}hexyl)-1H-imidazol-4-yl]methyl}aniline], the results for the IC50 in series [2], in series [3] and in series [4] were 0.249 µM, 6 µM and 6.8 µM, respectively.

On to `FC(F)(F)c1ccc2c(SCCCCCCNc3cccc(N4CCNCC4)c3)ccnc2c1` [Compound 0033235, 3-piperazin-1-yl-N-[6-[[7-(trifluoromethyl)-4-quinolyl]sulfanyl]hexyl]aniline], for which the IC50 in series [2] is 4.81 µM; in series [3], 1.1 µM; in series [4] it was 3.6 µM.

Consider `OC(c1ccccc1)c1cn(CCCCCCSc2ccnc3cc(C(F)(F)F)ccc23)cn1` (stereo not shown) [Compound 0033043, phenyl[1-(6-{[7-(trifluoromethyl)quinolin-4-yl]sulfanyl}hexyl)-1H-imidazol-4-yl]methanol], for which the IC50 came to 100 µM in series [2], 9.6 µM in series [3] and 7.8 µM in series [4].

With `FC(F)(F)c1ccc2c(SCCCCCOc3ccc(CN4CCOCC4)nc3)ccnc2c1` [Compound 0031778, 4-[(5-{[6-(morpholin-4-ylmethyl)pyridin-3-yl]oxy}pentyl)sulfanyl]-7-(trifluoromethyl)quinoline], the results for the IC50 in series [2] and in series [4] were 1.24 µM and 4.86 µM, respectively. In series [3], the “Rac1 AS IC50(uM)” value is given as “positive”.

Regarding `COc1ccc(N2CCN(Cc3cn(CCCCCCSc4ccnc5cc(C(F)(F)F)ccc45)nn3)CC2)cc1` [Compound 0032956, 4-{[6-(4-{[4-(4-methoxyphenyl)piperazin-1-yl]methyl}-1H-1,2,3-triazol-1-yl)hexyl]sulfanyl}-7-(trifluoromethyl) quinoline], the IC50 was found to be 1.41 µM in series [2], 8.2 µM in series [3] and 10.7 µM in series [4].

Consider `FC(F)(F)c1ccc2c(SCc3cccc(Cn4cc(CN5CCOCC5)nn4)c3)ccnc2c1` [Compound 0032731, 4-[{(3-{[4-(morpholin-4-ylmethyl)-1H-1,2,3-triazol-1-yl]methyl}phenyl)methyl]sulfanyl)-7-(trifluoromethyl) quinoline], for which the results for the IC50 in series [2], in series [3] and in series [4] were 5.16 µM, 24.1 µM and 9.1 µM, respectively.

Turning to `FC(F)(F)c1ccc2c(SCCCCCCn3cnc(CNc4ccccc4)c3)ccnc2c1` [Compound 0032886, N-{[1-(6-{[7-(trifluoromethyl)quinolin-4-yl]sulfanyl)hexyl}-1H-imidazol-4-yl]methyl} aniline], the figures for the IC50 in series [2], in series [3] and in series [4] were 2.04 µM, 4.4 µM and 7.8 µM, respectively.

As to `Cc1ccc(NCc2cn(CCCCCCSc3ccnc4cc(C(F)(F)F)ccc34)cn2)cc1` [Compound 0032880, 4-methyl-N-{[1-(6-{[7-(trifluoromethyl)quinolin-4-yl]sulfanyl)hexyl}-1H-imidazol-4-yl]methyl)aniline], the IC50 in series [2] was 1 µM; in series [3], 3.2 µM; in series [4], 6.3 µM.

In the case of `COCCN(Cc1cn(CCCCCCSc2ccnc3cc(C(F)(F)F)ccc23)nn1)C(=O)OC(C)(C)C` [Compound 0032621, tert-butyl N-(2-methoxyethyl)-N-{[1-(6-{[7-(trifluoromethyl)quinolin-4-yl]sulfanyl}hexyl)-1H-1,2,3-triazol-4-yl]methyl}carbamate], the results for the IC50 in series [2] and in series [4] were 1.48 µM and 9.34 µM, respectively. The “Rac1 AS IC50(uM)” value in series [3] was “positive”.

Take `FC(F)(F)c1ccc2c(SCCCCCCn3ccc(CN4CCOCC4)n3)ccnc2c1` [Compound 0032897, 4-({6-[3-(morpholin-4-ylmethyl)-1H-pyrazol-1-yl]hexyl}sulfanyl)-7-(trifluoromethyl) quinoline]: the half-inhibitory concentration (IC50) in series [2] is 2.79 µM; in series [3], 35 µM; in series [4], 11.6 µM.

In the case of `Fc1ccc2c(SCCCCCCn3cnc(CNc4ccccc4)c3)ccnc2c1` [Compound 0033042, N-{(1-(6-[(7-fluoroquinolin-4-yl)sulfanyl]hexyl}-1H-imidazol-4-yl}methyl] aniline], the values for the IC50 in series [2], in series [3] and in series [4] were 2.35 µM, 7.2 µM and 9 µM, respectively.
